Test results: patent publication US10478425B2, “5-phenylazaindole derivative having AMPK-activating activity” (Shionogi & Co., Ltd., priority 2016, dated 2019)

Biological target: T1, Human AMPK α2β2γ1 (Homo sapiens, UniProt O43741+P54646)
T1 construct: The full length cDNAs of human AMPK β2 (NM_005399.3) and human AMPK α2 (NM_006252.3); The full length cDNAs of human AMPK β2 (NM_005399.3); the full length cDNA of human AMPK γ1 (NM_002733.3) had been inserted into pET28b(+); 6×His (N); made in house; host or cells: Escherichia coli BL21 CodonPlus (DE3)-RIL
Test: Test Example 2: activation of phosphorylated human AMPK α2β2γ1 (mobility-shift kinase assay, FL-Peptide 7)
Format: biochemical
Details: compound concentration showing 150% relative to the control (100%); human AMPK α2β2γ1 phosphorylated with CaMKK2
How it was run: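 His-tagged α2β2γ1 expressed in E. coli was pre-phosphorylated by GST-CaMKKβ (25 °C, 1–1.5 h), then exposed to compound for 10 min (1% DMSO). Reaction: pH 7.0 HEPES, ATP and 1.5 μM FL-Peptide 7 (final), 2 h at 25 °C. Mobility-shift conversion gave % activity increase versus compound-free control.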

T1 sequence (P54646 whole entry): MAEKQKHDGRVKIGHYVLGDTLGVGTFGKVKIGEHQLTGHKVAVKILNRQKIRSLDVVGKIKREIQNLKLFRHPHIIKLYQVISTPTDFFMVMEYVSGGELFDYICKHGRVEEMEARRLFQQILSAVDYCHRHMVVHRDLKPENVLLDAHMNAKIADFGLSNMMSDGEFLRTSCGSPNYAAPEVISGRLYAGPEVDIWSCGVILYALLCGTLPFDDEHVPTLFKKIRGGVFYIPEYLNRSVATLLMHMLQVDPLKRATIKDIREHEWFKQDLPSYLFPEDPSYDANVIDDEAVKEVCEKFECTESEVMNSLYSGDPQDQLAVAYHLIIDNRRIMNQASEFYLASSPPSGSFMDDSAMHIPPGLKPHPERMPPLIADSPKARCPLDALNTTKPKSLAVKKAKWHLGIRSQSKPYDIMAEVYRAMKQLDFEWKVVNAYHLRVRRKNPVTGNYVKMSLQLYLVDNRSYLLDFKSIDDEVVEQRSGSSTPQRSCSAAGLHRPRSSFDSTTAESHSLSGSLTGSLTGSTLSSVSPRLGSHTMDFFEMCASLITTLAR
T1 sequence (O43741 whole entry): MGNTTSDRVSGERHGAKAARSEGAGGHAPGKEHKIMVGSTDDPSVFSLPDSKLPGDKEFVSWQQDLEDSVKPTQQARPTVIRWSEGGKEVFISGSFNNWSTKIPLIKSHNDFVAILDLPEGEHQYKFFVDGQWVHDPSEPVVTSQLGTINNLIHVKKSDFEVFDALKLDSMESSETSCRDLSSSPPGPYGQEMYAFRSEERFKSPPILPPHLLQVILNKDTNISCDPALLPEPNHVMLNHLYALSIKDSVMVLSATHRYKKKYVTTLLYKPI
T1 sequence (P54619 whole entry partner): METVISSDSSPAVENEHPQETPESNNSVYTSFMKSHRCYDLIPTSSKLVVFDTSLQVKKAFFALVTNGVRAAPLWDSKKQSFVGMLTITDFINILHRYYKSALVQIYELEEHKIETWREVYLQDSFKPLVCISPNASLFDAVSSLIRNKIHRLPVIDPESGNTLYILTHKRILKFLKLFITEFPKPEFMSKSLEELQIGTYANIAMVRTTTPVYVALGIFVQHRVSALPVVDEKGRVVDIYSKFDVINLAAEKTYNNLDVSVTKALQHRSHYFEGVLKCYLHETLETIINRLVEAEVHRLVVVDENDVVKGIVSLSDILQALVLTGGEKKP

Compared with CC(C)(O)COc1ccc(-c2ccc(-c3nc4cc(O[C@@H]5CO[C@H]6[C@@H]5OC[C@H]6O)[nH]c4cc3F)cc2)cc1 [Compound I-2-13], C[S+]([O-])c1ccc(-c2ccc(-c3nc4cc(O[C@@H]5CO[C@H]6[C@@H]5OC[C@H]6O)[nH]c4cc3F)cc2)cc1 (stereo partly shown) [Compound I-1-64] is 1.9-fold lower in EC150: 3 nM for the first, 1.6 nM for the second.

Going from CS(C)(=O)=Nc1ccc(-c2ccc(-c3nc4cc(O[C@@H]5CO[C@H](CO)C5)[nH]c4cc3F)cc2)cc1 [Compound I-1-47] to CS(C)(=O)=Nc1ccc(-c2ccc(-c3nc4cc(O[C@@H]5CO[C@H](CO)C5)[nH]c4cc3Cl)cc2)cc1 [Compound I-1-02], the EC150 rises from 0.96 nM to 2.2 nM (2.3-fold).

First: COCCNc1ccc(-c2ccc(-c3nc4cc(O[C@@H]5CO[C@H]6[C@@H]5OC[C@H]6O)[nH]c4cc3F)cc2)cc1 [Compound I-2-31]
Second: O[C@@H]1CO[C@H]2[C@@H]1OC[C@H]2Oc1cc2nc(-c3ccc(-c4ccc(O[C@@H]5CCOC5)cc4)cc3)c(F)cc2[nH]1 [Compound I-2-84]
The EC150 of the first is 1.6-fold higher: 6.8 nM for the first, 4.3 nM for the second.

Work on O[C@@H]1CO[C@H]2[C@@H]1OC[C@H]2Oc1cc2nc(-c3ccc([C@@H]4CCCC[C@@H]4O)cc3)c(F)cc2[nH]1 [Compound I-2-18] yielded an EC150 of 12 nM.

With O[C@@H]1CO[C@H]2[C@@H]1OC[C@H]2Oc1cc2nc(-c3ccc(-c4ccc(OC5CCNC5)cc4)cc3)c(F)cc2[nH]1 (stereo partly shown) [Compound I-1-60] the EC150 was < 0.051 nM.

Same assay, conditions: maximum rate of increase in activity within the measurement range, control = 100%; read-out: Emax

Going from CC(C)(O)COc1ccc(-c2ccc(-c3nc4cc(O[C@@H]5CO[C@H]6[C@@H]5OC[C@H]6O)[nH]c4cc3F)cc2)cc1 [Compound I-2-13] to C[S+]([O-])c1ccc(-c2ccc(-c3nc4cc(O[C@@H]5CO[C@H]6[C@@H]5OC[C@H]6O)[nH]c4cc3F)cc2)cc1 (stereo partly shown) [Compound I-1-64], the Emax falls from 652% to 375%.

Going from O[C@@H]1CO[C@H]2[C@@H]1OC[C@H]2Oc1cc2nc(-c3ccc(-c4ccc(OC5CCNC5)cc4)cc3)c(F)cc2[nH]1 (stereo partly shown) [Compound I-1-60] to O[C@@H]1CO[C@H]2[C@@H]1OC[C@H]2Oc1cc2nc(-c3ccc(-c4ccc(O[C@@H]5CCOC5)cc4)cc3)c(F)cc2[nH]1 [Compound I-2-84], the Emax rises from 486% to 514%.

Going from CS(C)(=O)=Nc1ccc(-c2ccc(-c3nc4cc(O[C@@H]5CO[C@H](CO)C5)[nH]c4cc3F)cc2)cc1 [Compound I-1-47] to CS(C)(=O)=Nc1ccc(-c2ccc(-c3nc4cc(O[C@@H]5CO[C@H](CO)C5)[nH]c4cc3Cl)cc2)cc1 [Compound I-1-02], the Emax falls from 542% to 510%.

Going from COCCNc1ccc(-c2ccc(-c3nc4cc(O[C@@H]5CO[C@H]6[C@@H]5OC[C@H]6O)[nH]c4cc3F)cc2)cc1 [Compound I-2-31] to O[C@@H]1CO[C@H]2[C@@H]1OC[C@H]2Oc1cc2nc(-c3ccc([C@@H]4CCCC[C@@H]4O)cc3)c(F)cc2[nH]1 [Compound I-2-18], the Emax rises from 478% to 618%.

Tested on: phosphorylation of endogenous acetyl-CoA carboxylase (ACC) in L6-GLUT4myc myoblasts
Test: Test Example 3: cell-based ELISA of ACC (Ser79) phosphorylation for AMPK activation in L6-GLUT4myc myoblasts
Details: concentration causing 150% relative to vehicle control (100%), 3 hours, phospho-ACC
Description: Cell-based assay for AMPK activation potency of compounds was performed with L6-GLUT4myc myoblasts (J. Biol. Chem. 278:17953-62, 2003) in a 96-well or 384-well plate by detecting the phosphorylation of endogenous acetyl-CoA carboxylase (ACC) using cell-based ELISA method. The cells were seeded in a 96-well plate at a density of 2×10^4 cells per well or in a 384-well plate at a density of 3.5×10^3 cells per well in minimum essential media (α-MEM) supplemented with 10% fetal bovine serum, 100 U/mL penicillin, 100 μg/mL streptomycin, 2 μg/mL blasticidin S hydrochloride and 0.5 mg/mL G418 disulfate, and maintained in a humidified atmosphere of 95% air and 5% CO2 at 37° C. for 24 hours. Following the overnight culture with an assay buffer consisting of 0.1% bovine serum albumin (BSA), 100 U/mL penicillin and 100 μg/mL streptomycin, cells were treated with varying concentrations of compounds or vehicle (dimethyl sulfoxide at a final concentration of 0.33%) in the presence of 0.1% BSA or 4% BSA for 3 hours at room temperature. After fixing cells with ice-cold 4% formaldehyde in Tris-buffered saline (TBS) for 30 min, the fixed cells were rinsed with TBS containing 0.1% or 0.01% Triton X-100 (TBS-T) and quenched with 0.6% hydrogen peroxide in TBS-T, and blocked with a blocking reagent (Blocking One P manufactured by Nacalai Tesque). Then, anti-phospho-ACC (Ser79) antibody as the primary antibody (manufactured by Cell Signaling Technology) diluted with TBS-T containing 5% Blocking One P was added to each well and the plate was incubated overnight at 4° C. After rinsing each well with TBS-T, horseradish peroxidase (HRP)-conjugated anti-rabbit IgG as the secondary antibody diluted with TBS-T containing 5% Blocking One P was added to each well and the plate was incubated for 1 hour in 96-well plate or for 5 hours in 384-well plate at room temperature. Each well of the plate was rinsed with TBS-T and added a chemiluminescent reagent (ImmunoStar® LD manufactured by Wako Pure Chemical Industries) for detection of HRP conjugates. Ten minutes later, the luminescence intensity was measured using luminometer (ViewLux or ARVO manufactured by PerkinElmer). The luminescence in the presence of compound was calculated as the rate of change relative to vehicle control, which is in the absence of compound.

Going from CC(C)(O)COc1ccc(-c2ccc(-c3nc4cc(O[C@@H]5CO[C@H]6[C@@H]5OC[C@H]6O)[nH]c4cc3F)cc2)cc1 [Compound I-2-13] to C[S+]([O-])c1ccc(-c2ccc(-c3nc4cc(O[C@@H]5CO[C@H]6[C@@H]5OC[C@H]6O)[nH]c4cc3F)cc2)cc1 (stereo partly shown) [Compound I-1-64], the EC (150% of control) falls from 0.16 µM to 0.021 µM (7.6-fold).

Compared with O[C@@H]1CO[C@H]2[C@@H]1OC[C@H]2Oc1cc2nc(-c3ccc(-c4ccc(OC5CCNC5)cc4)cc3)c(F)cc2[nH]1 (stereo partly shown) [Compound I-1-60], O[C@@H]1CO[C@H]2[C@@H]1OC[C@H]2Oc1cc2nc(-c3ccc(-c4ccc(O[C@@H]5CCOC5)cc4)cc3)c(F)cc2[nH]1 [Compound I-2-84] is 4.2-fold higher in EC (150% of control): 0.019 µM for the first, 0.079 µM for the second.

Compared with CS(C)(=O)=Nc1ccc(-c2ccc(-c3nc4cc(O[C@@H]5CO[C@H](CO)C5)[nH]c4cc3F)cc2)cc1 [Compound I-1-47], CS(C)(=O)=Nc1ccc(-c2ccc(-c3nc4cc(O[C@@H]5CO[C@H](CO)C5)[nH]c4cc3Cl)cc2)cc1 [Compound I-1-02] is 2.9-fold higher in EC (150% of control): 0.0039 µM for the first, 0.0113 µM for the second.

COCCNc1ccc(-c2ccc(-c3nc4cc(O[C@@H]5CO[C@H]6[C@@H]5OC[C@H]6O)[nH]c4cc3F)cc2)cc1 [Compound I-2-31] and O[C@@H]1CO[C@H]2[C@@H]1OC[C@H]2Oc1cc2nc(-c3ccc([C@@H]4CCCC[C@@H]4O)cc3)c(F)cc2[nH]1 [Compound I-2-18] are within 1.5-fold of each other in EC (150% of control): 0.134 µM for the first, 0.164 µM for the second.

Same assay, conditions: maximum response within varying concentrations, vehicle control = 100%

Going from CC(C)(O)COc1ccc(-c2ccc(-c3nc4cc(O[C@@H]5CO[C@H]6[C@@H]5OC[C@H]6O)[nH]c4cc3F)cc2)cc1 [Compound I-2-13] to C[S+]([O-])c1ccc(-c2ccc(-c3nc4cc(O[C@@H]5CO[C@H]6[C@@H]5OC[C@H]6O)[nH]c4cc3F)cc2)cc1 (stereo partly shown) [Compound I-1-64], the Emax falls from 650% to 509%.

First: O[C@@H]1CO[C@H]2[C@@H]1OC[C@H]2Oc1cc2nc(-c3ccc(-c4ccc(OC5CCNC5)cc4)cc3)c(F)cc2[nH]1 (stereo partly shown) [Compound I-1-60]
Second: O[C@@H]1CO[C@H]2[C@@H]1OC[C@H]2Oc1cc2nc(-c3ccc(-c4ccc(O[C@@H]5CCOC5)cc4)cc3)c(F)cc2[nH]1 [Compound I-2-84]
The Emax of the first is lower: 495% for the first, 684% for the second.

First: CS(C)(=O)=Nc1ccc(-c2ccc(-c3nc4cc(O[C@@H]5CO[C@H](CO)C5)[nH]c4cc3F)cc2)cc1 [Compound I-1-47]
Second: CS(C)(=O)=Nc1ccc(-c2ccc(-c3nc4cc(O[C@@H]5CO[C@H](CO)C5)[nH]c4cc3Cl)cc2)cc1 [Compound I-1-02]
The Emax of the first is lower: 547% for the first, 968% for the second.

Going from COCCNc1ccc(-c2ccc(-c3nc4cc(O[C@@H]5CO[C@H]6[C@@H]5OC[C@H]6O)[nH]c4cc3F)cc2)cc1 [Compound I-2-31] to O[C@@H]1CO[C@H]2[C@@H]1OC[C@H]2Oc1cc2nc(-c3ccc([C@@H]4CCCC[C@@H]4O)cc3)c(F)cc2[nH]1 [Compound I-2-18], the Emax falls from 656% to 612%.

Tested on: not listed separately
Test: BA test (oral absorption)
Format: in vivo
Details: rat, plasma; rats; calculated from AUCs of oral and intravenous administration groups
Description: • (1) Animals: mice or rats • (2) Animal husbandry: Mice and rats had free access to solid food and sterilized bottled tap water. • (3) Setting of dose and group compositions: orally or intravenously administered at a predetermined dose Group compositions were as shown below. (Dose depends on the compound)
Oral: 1 to 30 mg/kg (n=2 to 3)
Intravenous: 0.5 to 10 mg/kg (n=2 to 3) • (4) Preparation of administration formulation: for oral administration, in a solution or a suspension state; for intravenous administration, in a solubilized state • (5) Dosing procedure: In oral administration study, the test substance was forcibly administered to the stomach by using a gavage tube. In intravenous administration study, the test substance was administered via tail vein using a syringe with a needle. • (6) Evaluation items: Blood was collected at each time point, and plasma concentration of the drug was determined by LC/MS/MS. • (7) Data analysis: Regarding the transition of the plasma concentration, area under the plasma concentration-time curve (AUC) was calculated by means of WinNonlin® program, respectively. Bioavailability (BA) was calculated from AUCs of the oral administration group and intravenous administration group.

Going from CC(C)(O)COc1ccc(-c2ccc(-c3nc4cc(O[C@@H]5CO[C@H]6[C@@H]5OC[C@H]6O)[nH]c4cc3F)cc2)cc1 [Compound I-2-13] to C[S+]([O-])c1ccc(-c2ccc(-c3nc4cc(O[C@@H]5CO[C@H]6[C@@H]5OC[C@H]6O)[nH]c4cc3F)cc2)cc1 (stereo partly shown) [Compound I-1-64], the bioavailability falls from 59% to 17.8%.

Compared with COCCNc1ccc(-c2ccc(-c3nc4cc(O[C@@H]5CO[C@H]6[C@@H]5OC[C@H]6O)[nH]c4cc3F)cc2)cc1 [Compound I-2-31], O[C@@H]1CO[C@H]2[C@@H]1OC[C@H]2Oc1cc2nc(-c3ccc(-c4ccc(O[C@@H]5CCOC5)cc4)cc3)c(F)cc2[nH]1 [Compound I-2-84] is higher in bioavailability: 40.5% for the first, 52.1% for the second.

Compound O[C@@H]1CO[C@H]2[C@@H]1OC[C@H]2Oc1cc2nc(-c3ccc([C@@H]4CCCC[C@@H]4O)cc3)c(F)cc2[nH]1 [Compound I-2-18] has a bioavailability of 18.6%.
